Values joined by “and” are separate entries in the source; they are usually repeats but may differ in a detail not shown here. Identical values can stand only once.
molecular target: Adenosine A2A receptor (Homo sapiens, UniProt P29274); assay: cAMP assay in 293A cells stably expressing the adenosine A2A receptor (CGS21680 stimulation, HTRF); type: cell-based; design: expressed in transfected cells; host or cells: 293A cells (Invitrogen, Cat# R705-07) infected with A2A-expressing lentivirus (custom packaged by Biosettia), puromycin selected; settings: 293A-A2AR cells, 0.1% BSA, 1 uM CGS; read-out: cAMP (nM) 0.1% BSA, 1 uM CGS
Sequence (P29274 whole entry): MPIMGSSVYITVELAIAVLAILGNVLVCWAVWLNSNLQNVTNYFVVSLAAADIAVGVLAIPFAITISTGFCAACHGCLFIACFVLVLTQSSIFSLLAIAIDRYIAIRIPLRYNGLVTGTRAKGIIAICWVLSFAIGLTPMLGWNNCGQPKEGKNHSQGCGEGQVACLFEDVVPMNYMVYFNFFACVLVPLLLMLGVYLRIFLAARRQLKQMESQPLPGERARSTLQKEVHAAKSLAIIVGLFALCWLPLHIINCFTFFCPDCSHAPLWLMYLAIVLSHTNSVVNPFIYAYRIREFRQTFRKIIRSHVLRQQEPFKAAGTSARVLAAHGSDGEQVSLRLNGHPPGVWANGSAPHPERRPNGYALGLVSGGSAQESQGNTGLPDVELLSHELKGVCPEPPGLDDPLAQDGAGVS
Method: A 293A cell line (Invitrogen, Cat# R705-07) stably expressing the adenosine A2A receptor was generated in house. Briefly, 293A cells were seeded in 6-well plate and infected with A2A expressing lentivirus (custom packaged by Biosettia) and selected with puromycin (1 ug/ml). Cells survived selection were confirmed for A2A expression by RT-qPCR (RT Reagent: High-Capacity cDNA Reverse Transcription Kit, Applied Biosystems/Thermo Fisher Cat# 4368814, qPCR reagent: SYBR™ Green Master Mix, Applied Biosystems/Thermo Fisher Cat# 4309155). The cells were maintained in DMEM/F12 medium containing 10% FBS, 100 units/ml Penicillin, 100 μg/ml Streptomycin, and 1 μg/ml puromycin at 37° C., 5% CO2. 293A-A2AR cells were harvested on the day of assay and resuspended at 0.6 million cells/ml in DMEM/F12 with 0.1% BSA and 30 U/ml denosine deaminase(Roche, Cat #: 10102121001). Serial dilutions of compounds were prepared in DMEM/F12 with 0.1% BSA to a DMSO concentration of 0.6%. After 4 μl of compound dilutions were added, 4 μl suspended cells were dispensed into low-volume white 384-well plates (Greiner Bio-One). […] The assay plate was then incubated at room temperature for 30 min. 3 μl of d2 conjugated cAMP and 3 μl cryptate conjugated anti-cAMP antibody were then added. D2 conjugated cAMP and cryptate conjugated anti-cAMP antibody (Cisbio, Cat #: 62AM6PEC) were both prepared in cell lysis buffer according to the manufacturer's instruction. After 1 h incubation at room temperature, plates were read in CIARIOstar plate reader (BMG Labtech) using the HTRF detection mode.

| SMILES | IC50 |
| --- | --- |
| CCc1nnn(CC)c1COc1nc(N)nc(-c2cccc(C#N)c2C)c1-c1cc(C)nc(C(F)F)c1 [Example 255, 3-(2-amino-6-((1,4-diethyl-1H-1,2,3-triazol-5-yl)methoxy)-5-(2-(difluoromethyl)-6-methylpyridin-4-yl)pyrimidin-4-yl)-2-methylbenzonitrile] | > 25000 nM |
| CCc1c(COc2nc(N)nc(-c3cccc(C#N)c3C)c2-c2cc(C)nc(C(F)F)c2)nnn1CC [Example 256, 3-(2-amino-6-((1,5-diethyl-1H-1,2,3-triazol-4-yl)methoxy)-5-(2-(difluoromethyl)-6-methylpyridin-4-yl)pyrimidin-4-yl)-2-methylbenzonitrile] | 2910 nM |
| Cc1cc(-c2c(OCc3ccn(CC(C)(C)O)n3)nc(N)nc2-c2ccc(F)cc2)cc(C(F)F)n1 [Example 258, 1-(3-(((2-amino-5-(2-(difluoromethyl)-6-methylpyridin-4-yl)-6-(4-fluorophenyl)pyrimidin-4-yl)oxy)methyl)-1H-pyrazol-1-yl)-2-methylpropan-2-ol] | 2390 nM |
| Cc1cc(-c2c(OCc3cc(C(C)(C)C#N)ccn3)nc(N)nc2-c2cccc(C#N)c2C)cc(C(F)F)n1 [Example 261, 3-(2-amino-6-((4-(2-cyanopropan-2-yl)pyridin-2-yl)methoxy)-5-(2-(difluoromethyl)-6-methylpyridin-4-yl)pyrimidin-4-yl)-2-methylbenzonitrile] | 2190 nM |
| Cc1cc(-c2c(OCc3nnn[nH]3)nc(N)nc2-c2ccc(F)cc2)cc(C(F)F)n1 [Example 269, 4-((1H-tetrazol-5-yl)methoxy)-5-(2-(difluoromethyl)-6-methylpyridin-4-yl)-6-(4-fluorophenyl)pyrimidin-2-amine] | > 25000 nM |
| Cc1cc(-c2c(OCc3cnccn3)nc(N)nc2-c2ccc(F)cc2)cc(C(F)F)n1 [Example 273, 5-(2-(difluoromethyl)-6-methylpyridin-4-yl)-4-(4-fluorophenyl)-6-(pyrazin-2-ylmethoxy)pyrimidin-2-amine] | 1660 nM |
| Cc1cc(-c2c(OCc3cccc(C4(C#N)CCOCC4)n3)nc(N)nc2-c2ccc(F)cc2)cc(C(F)F)n1 [Example 275, 4-(6-(((2-amino-5-(2-(difluoromethyl)-6-methylpyridin-4-yl)-6-(4-fluorophenyl)pyrimidin-4-yl)oxy)methyl)pyridin-2-yl)tetrahydro-2H-pyran-4-carbonitrile] | 321 nM |
| Cc1cc(-c2c(OCc3ccnc(C(C)(C)C#N)c3)nc(N)nc2-c2ccc(F)cc2)cc(C(F)F)n1 [Example 277, 2-(4-(((2-amino-5-(2-(difluoromethyl)-6-methylpyridin-4-yl)-6-(4-fluorophenyl)pyrimidin-4-yl)oxy)methyl)pyridin-2-yl)-2-methylpropanenitrile] | 455 nM |

Results, then the compound that gave them:

| IC50 | SMILES |
| --- | --- |
| > 25000 nM | Cc1cc(-c2c(OCc3cccc(N4CCC(C)(O)CC4)n3)nc(N)nc2-c2ccc(F)cc2)cc(C(F)F)n1 [Example 259, 1-(6-(((2-amino-5-(2-(difluoromethyl)-6-methylpyridin-4-yl)-6-(4-fluorophenyl)pyrimidin-4-yl)oxy)methyl)pyridin-2-yl)-4-methylpiperidin-4-ol] |
| 1360 nM | Cc1cc(-c2c(OCc3cccc(N4CC(C)(O)C4)n3)nc(N)nc2-c2ccc(F)cc2)cc(C(F)F)n1 [Example 260, 1-(6-(((2-amino-5-(2-(difluoromethyl)-6-methylpyridin-4-yl)-6-(4-fluorophenyl)pyrimidin-4-yl)oxy)methyl)pyridin-2-yl)-3-methylazetidin-3-ol] |
| 88 nM and 161 nM | Cc1cc(-c2c(OCc3cccc(C(C)O)n3)nc(N)nc2-c2ccc(F)cc2)cc(C(F)F)n1 (stereo not drawn) [Example 272, 1-(6-(((2-amino-5-(2-(difluoromethyl)-6-methylpyridin-4-yl)-6-(4-fluorophenyl)pyrimidin-4-yl)oxy)methyl)pyridin-2-yl)ethan-1-ol] |
| 3210 nM | Cc1cc(-c2c(OCc3cccc(C(=O)O)n3)nc(N)nc2-c2ccc(F)cc2)cc(C(F)F)n1 [Example 274, 6-(((2-amino-5-(2-(difluoromethyl)-6-methylpyridin-4-yl)-6-(4-fluorophenyl)pyrimidin-4-yl)oxy)methyl)picolinic acid] |

— patent US20210355104A1, “ADENOSINE RECEPTOR BINDING COMPOUNDS” (Nikang Therapeuticsm Inc., priority 2018, published 2021)
